Reference: patent US6087355A, “Cephalosporin antibiotics” (Microcide Pharmaceuticals, Inc., priority 1996, dated 2000)
Counter-ions that a name gives are not always drawn.

Experiments:
[1] = test system: E. coli ATCC 25992; assay: In vitro MIC, agar dilution; format: cell-based; details: for MIC: Escherichia coli, ATCC25992, read-out: minimum inhibitory concentration (MIC)
Method in brief: (§1)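 Two-fold dilutions of compound (highest working concentration 128 μg/mL, down to ≤0.25 μg/mL, in duplicate) were set into Mueller-Hinton agar. Plates were spot-inoculated at about 10^4 cfu per spot from log-phase cultures and incubated 16-20 hours at 35-36° C. MIC is the lowest concentration inhibiting growth.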

[2] = test system: E. faecalis ATCC 29212; assay: In vitro MIC, agar dilution; format: cell-based; details: for MIC: Enterococcus faecalis, ATCC29212, read-out: minimum inhibitory concentration (MIC)
Method in brief: as §1

[3] = test system: E. faecalis VanB(Van^R); assay: In vitro MIC, agar dilution; format: cell-based; details: for MIC: Enterococcus faecalis, read-out: minimum inhibitory concentration (MIC)
Method in brief: as §1

[4] = test system: E. faecium A491(Amp^R); assay: In vitro MIC, agar dilution; format: cell-based; details: for MIC: Enterococcus faecium, read-out: minimum inhibitory concentration (MIC)
Method in brief: as §1

[5] = test system: E. faecium ATCC 35667; assay: In vitro MIC, agar dilution; format: cell-based; details: for MIC: Enterococcus faecium, ATCC35667, read-out: minimum inhibitory concentration (MIC)
Method in brief: as §1

[6] = test system: E. faecium VanA(Van^R); assay: In vitro MIC, agar dilution; format: cell-based; details: for MIC: Enterococcus faecium, read-out: minimum inhibitory concentration (MIC)
Method in brief: as §1

[7] = test system: P. aeruginosa ATCC 27853; assay: In vitro MIC, agar dilution; format: cell-based; details: for MIC: Pseudomonas aeruginosa, ATCC27853, read-out: minimum inhibitory concentration (MIC)
Method in brief: as §1

[8] = test system: S. aureus 76(Meth^R)(lac^+); assay: In vitro MIC, agar dilution; format: cell-based; details: for MIC: Staphylococcus aureus, read-out: minimum inhibitory concentration (MIC)
Method in brief: as §1

[9] = test system: S. aureus ATCC 13709(Meth^S); assay: In vitro MIC, agar dilution; format: cell-based; details: for MIC: Staphylococcus aureus, ATCC13709, S. aureus ATCC 13709(Meth^S), read-out: minimum inhibitory concentration (MIC); for minimum inhibitory concentration (MIC): S. aureus ATCC 13709(Meth^S)
Method in brief: as §1

[10] = test system: S. aureus ATCC 29213; assay: In vitro MIC, agar dilution; format: cell-based; details: for MIC: Staphylococcus aureus, ATCC29213, read-out: minimum inhibitory concentration (MIC)
Method in brief: as §1

[11] = test system: S. aureus ATCC 33593(Meth^R); assay: In vitro MIC, agar dilution; format: cell-based; details: for MIC: Staphylococcus aureus, ATCC33593, read-out: minimum inhibitory concentration (MIC)
Method in brief: as §1

[12] = test system: S. aureus PC1(Meth^S)(lac^+); assay: In vitro MIC, agar dilution; format: cell-based; details: for MIC: Staphylococcus aureus, read-out: minimum inhibitory concentration (MIC)
Method in brief: as §1

[13] = test system: S. aureus Spain #356(Meth^R); assay: In vitro MIC, agar dilution; format: cell-based; details: for MIC: Staphylococcus aureus, read-out: minimum inhibitory concentration (MIC)
Method in brief: as §1

[14] = test system: S. haemolyticus 05(Meth^R); assay: In vitro MIC, agar dilution; format: cell-based; details: for MIC: Staphylococcus haemolyticus, read-out: minimum inhibitory concentration (MIC)
Method in brief: as §1

[15] = test system: S. aureus Col(Meth^R)(lac^-); assay: In vitro MIC, agar dilution; format: cell-based; details: for MIC: Staphylococcus aureus, read-out: minimum inhibitory concentration (MIC)
Method in brief: (§2)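 Two-fold dilutions (128 to ≤0.25 μg/mL, in duplicate) were poured into Mueller-Hinton agar. Log-phase broth cultures were spot-inoculated at about 10^4 cfu per spot and incubated 35-36°C for 16-20 hours; the MIC was the lowest concentration inhibiting growth. Col is a high-level PBP2a producer; Col 8A is its isogenic PBP2a-lacking partner.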

[16] = test system: S. aureus Col8A(Meth^S)(lac^-); assay: In vitro MIC, agar dilution; format: cell-based; details: S. aureus Col8A(Meth^S)(lac^-); for MIC: Staphylococcus aureus, read-out: minimum inhibitory concentration (MIC)
Method in brief: as §2

[17] = test system: S. aureus strain ATCC 13709 (methicillin-susceptible); assay: Murine model for lethal bacteremic peritonitis; format: in vivo, female Swiss-Webster mice; details: Staphylococcus aureus, ATCC13709, SC, 72 h
Method in brief: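 Female Swiss-Webster mice were challenged IP with an LD100 inoculum in 7% hog gastric mucin, then given test drug subcutaneously in twofold increments (0.01–512 mg/kg) as two equal doses at challenge and 2 h later, 10 mice per group. Survival was scored at 72 h; PD50 (total mg/kg) was derived by probit.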

Compound	MIC [1]	MIC [2]	MIC [3]	MIC [4]	MIC [5]	MIC [6]	MIC [7]	MIC [8]	MIC [9]	MIC [10]	MIC [11]	MIC [12]	MIC [13]	MIC [14]	MIC [15]	MIC [16]	further results
Nc1nc(/C(=N/O)C(=O)N[C@@H]2C(=O)N3C(C(=O)O)=C(Sc4ccncc4CSC4CCNC4)CS[C@H]23)cs1 (stereo partly drawn) [Cmpd 17, (7R)-7-[(Z)-2-(aminothiazol-4-yl)-2-(hydroxyimino)acetamido]-3-[3-(3-pyrrolidinothiomethyl)pyrid-4-ylthio]-3-cephem-4-carboxylate, trifluoroacetic acid salt]	2 µg/mL	0.13 µg/mL	0.5 µg/mL	> 32 µg/mL	1 µg/mL	0.25 µg/mL	> 32 µg/mL	4 µg/mL	0.25 µg/mL	0.25 µg/mL	2 µg/mL	0.25 µg/mL	4 µg/mL	8 µg/mL	2 µg/mL	0.5 µg/mL	responders at 0.3125 mg/kg ([17]; Dose 0.3125 mg/kg, read-out: Survivors): 20%; responders at 0.625 mg/kg ([17]; Dose 0.625 mg/kg, read-out: Survivors): 20%; responders at 1.25 mg/kg ([17]; Dose 1.25 mg/kg, read-out: Survivors (converted)): 50%; responders at 2.5 mg/kg ([17]; Dose 2.5 mg/kg, read-out: Survivors): 30%; responders at 5 mg/kg ([17]; Dose 5 mg/kg, read-out: Survivors): 60%; ED50 ([17]; two equal doses, IP challenge, read-out: ED50): 3.59 mg/kg
NC/C=C\Cc1cnccc1SC1=C(C(=O)O)N2C(=O)[C@@H](NC(=O)/C(=N\O)c3nc(N)sc3Cl)[C@H]2SC1.O=C(O)C(F)(F)F [Cmpd 50, (7R)-7-[(Z)-2-(2-amino-5-chlorothiazol-4-yl)-2-(hydroxyimino)acetamido]-3-(3-(4-amino-2-Z-buten-1-yl)pyrid-4-ylthio)-3-cephem-4-carboxylate, trifluoroacetic acid salt]	–	–	–	–	–	–	–	–	–	–	–	–	–	–	–	–	minimum inhibitory concentration (MIC) [1]: 4 µg/mL; minimum inhibitory concentration (MIC) [2]: 0.13 µg/mL; minimum inhibitory concentration (MIC) [3]: 0.5 µg/mL; minimum inhibitory concentration (MIC) [4]: 16 µg/mL; minimum inhibitory concentration (MIC) [5]: 1 µg/mL; minimum inhibitory concentration (MIC) [6]: 2 µg/mL; minimum inhibitory concentration (MIC) [7]: > 32 µg/mL; minimum inhibitory concentration (MIC) [8]: 2 µg/mL; minimum inhibitory concentration (MIC) [9]: 0.13 µg/mL; minimum inhibitory concentration (MIC) [10]: 0.13 µg/mL; minimum inhibitory concentration (MIC) [11]: 2 µg/mL; minimum inhibitory concentration (MIC) [12]: 0.25 µg/mL; minimum inhibitory concentration (MIC) [13]: 2 µg/mL; minimum inhibitory concentration (MIC) [14]: 4 µg/mL; minimum inhibitory concentration (MIC) [15]: 2 µg/mL; minimum inhibitory concentration (MIC) [16]: 0.25 µg/mL
Nc1nc(/C(=N/O)C(=O)N[C@@H]2C(=O)N3C(C(=O)O)=C(Sc4ccncc4CSC4CCNCC4)CS[C@H]23)c(Cl)s1 [Cmpd 52, (7R)-7-[(Z)-2-(2-amino-5-chlorothiazol-4-yl)-2-(hydroxyimino)acetamido]-3-(3-(piperidine-4-ylthiomethyl)pyrid-4-ylthio)-3-cephem-4-carboxylate, trifluoroacetic acid salt]	2 µg/mL	≤ 0.06 µg/mL	0.13 µg/mL	4 µg/mL	≤ 0.06 µg/mL	1 µg/mL	> 32 µg/mL	2 µg/mL	0.5 µg/mL	0.5 µg/mL	2 µg/mL	0.5 µg/mL	2 µg/mL	2 µg/mL	2 µg/mL	0.25 µg/mL	–
NCC[S+]([O-])Cc1cnccc1SC1=C(C(=O)O)N2C(=O)[C@@H](NC(=O)/C(=N\O)c3nc(N)sc3Cl)[C@H]2SC1 (stereo partly drawn) [Cmpd 53, (7R)-7-[(Z)-2-(2-amino-5-chlorothiazol-4-yl)-2-(hydroxyimino)acetamido]-3-(3-aminoethylsulfinylmethylpyrid-4-ylthio)-3-cephem-4-carboxylate, trifluoroacetic acid salt]	4 µg/mL	0.13 µg/mL	0.25 µg/mL	16 µg/mL	1 µg/mL	2 µg/mL	> 32 µg/mL	4 µg/mL	0.25 µg/mL	0.5 µg/mL	2 µg/mL	1 µg/mL	4 µg/mL	4 µg/mL	4 µg/mL	0.5 µg/mL	–
CN(C)C(=O)[C@@H]1CC(SCc2cnccc2SC2=C(C(=O)O)N3C(=O)[C@@H](NC(=O)/C(=N\O)c4nc(N)sc4Cl)[C@H]3SC2)CN1 (stereo partly drawn) [Cmpd 55, (7R)-7-[(Z)-2-(2-amino-5-chlorothiazol-4-yl)-2-(hydroxyimino)acetamido]-3-(3-(5S-5-N,N-dimethylcarboxamidopyrrolidin-3-ylthiomethyl)pyrid-4-ylthio)-3-cephem-4-carboxylate, trifluoroacetic acid salt]	8 µg/mL	0.25 µg/mL	0.5 µg/mL	16 µg/mL	0.5 µg/mL	2 µg/mL	> 32 µg/mL	4 µg/mL	0.25 µg/mL	0.5 µg/mL	2 µg/mL	1 µg/mL	4 µg/mL	4 µg/mL	4 µg/mL	0.5 µg/mL	–
Nc1nc(/C(=N/O)C(=O)N[C@@H]2C(=O)N3C(C(=O)O)=C(Sc4ccncc4CSCCNC=O)CS[C@H]23)c(Cl)s1 [Cmpd 63, (7R)-7-[(Z)-2-(2-amino-5-chlorothiazol-4-yl)-2-(hydroxyimino)acetamido]-3-(3-(N-formylaminoethylthiomethyl)pyrid-4-ylthio)-3-cephem-4-carboxylate, trifluoroacetic acid salt]	16 µg/mL	0.13 µg/mL	0.25 µg/mL	16 µg/mL	0.5 µg/mL	1 µg/mL	> 32 µg/mL	2 µg/mL	0.25 µg/mL	0.25 µg/mL	2 µg/mL	0.25 µg/mL	4 µg/mL	2 µg/mL	2 µg/mL	0.13 µg/mL	–
(7R)-7-[(Z)-2-(aminothiazol-4-yl)-2-(hydroxyimino)acetamido]-3-[(guanidinoethylaminoethylthiomethyl)-1,2,3-thiadiazol-5-ylthio]-3-cephem-4-carboxylate, trifluoroacetic acid salt [Cmpd 12]	–	–	–	–	–	–	–	–	–	–	–	–	–	–	–	–	minimum inhibitory concentration (MIC) [1]: 8 µg/mL; minimum inhibitory concentration (MIC) [2]: 0.25 µg/mL; minimum inhibitory concentration (MIC) [3]: 0.5 µg/mL; minimum inhibitory concentration (MIC) [4]: > 32 µg/mL; minimum inhibitory concentration (MIC) [5]: 1 µg/mL; minimum inhibitory concentration (MIC) [6]: 4 µg/mL; minimum inhibitory concentration (MIC) [7]: > 32 µg/mL; minimum inhibitory concentration (MIC) [8]: 2 µg/mL; minimum inhibitory concentration (MIC) [9]: 0.25 µg/mL; minimum inhibitory concentration (MIC) [10]: 0.5 µg/mL; minimum inhibitory concentration (MIC) [11]: 2 µg/mL; minimum inhibitory concentration (MIC) [12]: 0.5 µg/mL; minimum inhibitory concentration (MIC) [13]: 2 µg/mL; minimum inhibitory concentration (MIC) [14]: 2 µg/mL; minimum inhibitory concentration (MIC) [15]: 2 µg/mL; minimum inhibitory concentration (MIC) [16]: 0.5 µg/mL
